Experimental data as given in ChEMBL document CHEMBL4052759, “Discovery of DS79182026: A potent orally active hepcidin production inhibitor” (Bioorg Med Chem Lett, 2017).
Values belong to the molecule of their own block, whether it stands above or below them.

Assays:
[1] = molecular target: Mitogen-activated protein kinase 1 (Homo sapiens) (UniProt P28482); assay: Inhibition of Erk2 (unknown origin) at 0.078 uM relative to control
[2] = molecular target: Mitogen-activated protein kinase 14 (Homo sapiens) (UniProt Q16539); assay: Inhibition of p38a (unknown origin) at 0.078 uM relative to control
[3] = molecular target: T1, Serine/threonine-protein kinase Chk1 (Homo sapiens) (UniProt O14757); assay: Inhibition of CHK1 (unknown origin) at 0.078 uM relative to control
T1 sequence (whole entry): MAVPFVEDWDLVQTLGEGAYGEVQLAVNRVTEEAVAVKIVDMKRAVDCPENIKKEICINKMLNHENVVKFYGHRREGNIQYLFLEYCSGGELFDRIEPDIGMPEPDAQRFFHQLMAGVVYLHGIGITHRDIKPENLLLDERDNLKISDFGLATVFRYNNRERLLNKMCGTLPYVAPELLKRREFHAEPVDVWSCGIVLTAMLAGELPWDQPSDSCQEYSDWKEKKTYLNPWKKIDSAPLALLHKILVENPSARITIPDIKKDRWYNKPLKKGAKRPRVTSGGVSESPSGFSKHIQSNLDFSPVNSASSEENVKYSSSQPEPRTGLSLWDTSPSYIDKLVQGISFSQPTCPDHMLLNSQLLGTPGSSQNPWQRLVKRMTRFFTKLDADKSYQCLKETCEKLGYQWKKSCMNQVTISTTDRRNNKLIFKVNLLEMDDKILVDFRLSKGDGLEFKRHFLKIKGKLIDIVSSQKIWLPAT

[4] = molecular target: Tyrosine-protein kinase Lyn (Homo sapiens) (UniProt P07948); assay: Inhibition of LYNB (unknown origin) at 0.49 uM relative to control
[5] = molecular target: Serine/threonine-protein kinase Nek6 (Homo sapiens) (UniProt Q9HC98); assay: Inhibition of NEK6 (unknown origin) at 0.49 uM relative to control
[6] = organism: Homo sapiens; assay: Inhibition of PKA (unknown origin) at 0.49 uM relative to control
[7] = molecular target: Maternal embryonic leucine zipper kinase (Homo sapiens) (UniProt Q14680); assay: Inhibition of MELK (unknown origin) at 0.49 uM relative to control
[8] = molecular target: Mitogen-activated protein kinase 11 (Homo sapiens) (UniProt Q15759); assay: Inhibition of p38-beta2 (unknown origin) at 0.49 uM relative to control
[9] = molecular target: Tyrosine-protein kinase JAK2 (Homo sapiens) (UniProt O60674); assay: Inhibition of JAK2 (unknown origin) at 0.49 uM relative to control
[10] = molecular target: Receptor-type tyrosine-protein kinase FLT3 (Homo sapiens) (UniProt P36888); assay: Inhibition of FLT3 (unknown origin) at 0.49 uM relative to control
[11] = molecular target: Tyrosine-protein kinase ABL2 (Homo sapiens) (UniProt P42684); assay: Inhibition of Arg (unknown origin) at 0.49 uM relative to control
[12] = system: Fibroblast growth factor receptor 3 (Homo sapiens), P22607 [K650M]; assay: Inhibition of FGFR3 K650M mutant (unknown origin) at 0.49 uM relative to control
[13] = molecular target: T2, Calcium/calmodulin-dependent protein kinase type IV (Homo sapiens) (UniProt Q16566); assay: Inhibition of CAMK4 (unknown origin) at 0.49 uM relative to control
T2 sequence (whole entry): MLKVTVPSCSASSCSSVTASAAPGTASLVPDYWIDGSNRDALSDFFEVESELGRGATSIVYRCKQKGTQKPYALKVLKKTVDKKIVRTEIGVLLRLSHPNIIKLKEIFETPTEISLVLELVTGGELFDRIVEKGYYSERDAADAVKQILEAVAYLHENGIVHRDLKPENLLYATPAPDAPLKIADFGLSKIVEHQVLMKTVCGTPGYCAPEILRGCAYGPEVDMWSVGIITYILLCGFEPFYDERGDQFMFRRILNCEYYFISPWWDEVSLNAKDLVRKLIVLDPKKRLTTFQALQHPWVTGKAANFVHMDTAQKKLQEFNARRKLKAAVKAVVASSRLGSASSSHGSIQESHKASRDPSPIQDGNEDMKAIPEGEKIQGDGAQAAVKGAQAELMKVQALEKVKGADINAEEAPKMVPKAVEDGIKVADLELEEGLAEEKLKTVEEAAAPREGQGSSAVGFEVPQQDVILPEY

[14] = system: Receptor-type tyrosine-protein kinase FLT3 (Homo sapiens), P36888 [D835Y]; assay: Inhibition of Flt3 D835Y mutant (unknown origin) at 0.49 uM relative to control
[15] = molecular target: Vascular endothelial growth factor receptor 1 (Homo sapiens) (UniProt P17948); assay: Inhibition of FLT1 (unknown origin) at 0.45 uM relative to control
[16] = molecular target: Interleukin-1 receptor-associated kinase 1 (Homo sapiens) (UniProt P51617); assay: Inhibition of IRAK1 (unknown origin) at 0.45 uM relative to control
[17] = molecular target: T3, MAP kinase-activated protein kinase 5 (Homo sapiens) (UniProt Q8IW41); assay: Inhibition of PRAK (unknown origin) at 0.45 uM relative to control
T3 sequence (whole entry): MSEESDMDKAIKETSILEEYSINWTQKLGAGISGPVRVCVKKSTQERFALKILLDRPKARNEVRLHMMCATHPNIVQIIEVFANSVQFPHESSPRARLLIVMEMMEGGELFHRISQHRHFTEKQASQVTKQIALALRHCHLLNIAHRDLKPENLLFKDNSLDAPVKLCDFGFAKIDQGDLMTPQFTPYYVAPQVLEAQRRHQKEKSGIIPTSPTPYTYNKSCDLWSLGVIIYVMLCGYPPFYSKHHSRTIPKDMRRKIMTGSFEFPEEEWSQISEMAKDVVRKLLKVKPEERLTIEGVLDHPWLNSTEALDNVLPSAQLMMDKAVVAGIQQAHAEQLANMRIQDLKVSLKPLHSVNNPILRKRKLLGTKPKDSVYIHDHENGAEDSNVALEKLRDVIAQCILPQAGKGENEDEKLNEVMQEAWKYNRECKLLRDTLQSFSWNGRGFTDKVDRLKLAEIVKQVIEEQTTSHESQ

[18] = molecular target: STE20-like serine/threonine-protein kinase (Homo sapiens) (UniProt Q9H2G2); assay: Inhibition of SLK (unknown origin) at 0.45 uM relative to control
[19] = molecular target: Serine/threonine-protein kinase MARK2 (Homo sapiens) (UniProt Q7KZI7); assay: Inhibition of MARK2 (unknown origin) at 0.45 uM relative to control
[20] = molecular target: Serine/threonine-protein kinase DCLK2 (Homo sapiens) (UniProt Q8N568); assay: Inhibition of DCAMKL2 (unknown origin) at 0.45 uM relative to control
Serine/threonine-protein kinase DCLK2 (Homo sapiens), sequence (Q8N568 whole entry): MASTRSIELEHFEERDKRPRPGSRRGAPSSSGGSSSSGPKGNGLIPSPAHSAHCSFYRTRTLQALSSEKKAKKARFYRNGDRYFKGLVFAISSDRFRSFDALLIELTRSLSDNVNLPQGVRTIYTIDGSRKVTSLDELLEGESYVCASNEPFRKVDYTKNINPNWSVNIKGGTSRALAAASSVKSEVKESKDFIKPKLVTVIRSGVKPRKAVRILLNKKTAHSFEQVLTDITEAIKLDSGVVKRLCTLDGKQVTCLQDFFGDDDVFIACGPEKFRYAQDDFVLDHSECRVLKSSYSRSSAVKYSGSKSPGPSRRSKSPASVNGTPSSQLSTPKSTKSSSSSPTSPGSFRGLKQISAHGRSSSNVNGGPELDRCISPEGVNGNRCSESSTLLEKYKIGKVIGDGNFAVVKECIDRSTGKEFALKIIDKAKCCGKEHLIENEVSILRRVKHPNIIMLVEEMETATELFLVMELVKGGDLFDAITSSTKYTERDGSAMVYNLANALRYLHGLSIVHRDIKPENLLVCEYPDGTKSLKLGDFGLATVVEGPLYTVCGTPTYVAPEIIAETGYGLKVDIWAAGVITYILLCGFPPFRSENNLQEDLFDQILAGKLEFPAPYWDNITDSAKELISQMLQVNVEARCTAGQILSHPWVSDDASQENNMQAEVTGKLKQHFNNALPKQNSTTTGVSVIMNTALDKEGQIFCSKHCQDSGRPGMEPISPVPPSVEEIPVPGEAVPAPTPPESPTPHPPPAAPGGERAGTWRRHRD

Serine/threonine-protein kinase MARK2 (Homo sapiens), sequence (Q7KZI7 whole entry): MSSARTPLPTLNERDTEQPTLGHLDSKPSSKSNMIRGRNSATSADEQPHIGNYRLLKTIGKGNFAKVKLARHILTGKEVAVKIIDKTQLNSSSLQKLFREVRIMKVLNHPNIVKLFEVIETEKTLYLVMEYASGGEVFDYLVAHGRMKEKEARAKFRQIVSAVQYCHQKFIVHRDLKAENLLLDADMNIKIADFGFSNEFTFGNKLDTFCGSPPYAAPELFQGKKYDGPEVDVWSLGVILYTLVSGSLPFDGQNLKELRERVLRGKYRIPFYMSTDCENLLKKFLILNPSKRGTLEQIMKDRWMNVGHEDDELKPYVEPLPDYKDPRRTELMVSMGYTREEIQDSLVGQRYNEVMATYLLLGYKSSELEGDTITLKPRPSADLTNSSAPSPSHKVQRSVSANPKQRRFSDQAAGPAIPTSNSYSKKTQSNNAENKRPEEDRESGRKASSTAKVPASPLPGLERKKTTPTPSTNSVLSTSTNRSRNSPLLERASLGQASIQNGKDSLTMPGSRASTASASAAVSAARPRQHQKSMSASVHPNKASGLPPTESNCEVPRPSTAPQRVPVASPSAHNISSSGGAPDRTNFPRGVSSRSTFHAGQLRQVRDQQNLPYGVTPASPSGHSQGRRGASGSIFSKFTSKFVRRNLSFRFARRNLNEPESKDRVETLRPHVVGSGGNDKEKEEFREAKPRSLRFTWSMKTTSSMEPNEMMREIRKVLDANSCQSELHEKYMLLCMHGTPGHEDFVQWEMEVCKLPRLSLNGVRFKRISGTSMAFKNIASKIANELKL
Tyrosine-protein kinase Lyn (Homo sapiens), sequence (P07948 2-512 limits assumed): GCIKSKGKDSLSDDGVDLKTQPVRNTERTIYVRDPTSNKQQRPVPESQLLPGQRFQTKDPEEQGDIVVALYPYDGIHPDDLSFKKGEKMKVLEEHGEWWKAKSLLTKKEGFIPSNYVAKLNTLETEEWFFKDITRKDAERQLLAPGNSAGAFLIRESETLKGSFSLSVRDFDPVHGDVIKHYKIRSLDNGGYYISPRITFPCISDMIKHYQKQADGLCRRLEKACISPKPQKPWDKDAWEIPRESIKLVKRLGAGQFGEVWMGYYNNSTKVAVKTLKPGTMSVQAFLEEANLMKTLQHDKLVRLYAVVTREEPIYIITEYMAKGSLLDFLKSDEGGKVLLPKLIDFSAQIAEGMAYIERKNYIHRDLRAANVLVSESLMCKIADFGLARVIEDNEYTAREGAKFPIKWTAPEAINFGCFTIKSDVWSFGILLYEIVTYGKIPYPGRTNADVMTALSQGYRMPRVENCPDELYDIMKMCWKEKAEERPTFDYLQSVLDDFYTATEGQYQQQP
Tyrosine-protein kinase ABL2 (Homo sapiens), sequence (P42684 whole entry): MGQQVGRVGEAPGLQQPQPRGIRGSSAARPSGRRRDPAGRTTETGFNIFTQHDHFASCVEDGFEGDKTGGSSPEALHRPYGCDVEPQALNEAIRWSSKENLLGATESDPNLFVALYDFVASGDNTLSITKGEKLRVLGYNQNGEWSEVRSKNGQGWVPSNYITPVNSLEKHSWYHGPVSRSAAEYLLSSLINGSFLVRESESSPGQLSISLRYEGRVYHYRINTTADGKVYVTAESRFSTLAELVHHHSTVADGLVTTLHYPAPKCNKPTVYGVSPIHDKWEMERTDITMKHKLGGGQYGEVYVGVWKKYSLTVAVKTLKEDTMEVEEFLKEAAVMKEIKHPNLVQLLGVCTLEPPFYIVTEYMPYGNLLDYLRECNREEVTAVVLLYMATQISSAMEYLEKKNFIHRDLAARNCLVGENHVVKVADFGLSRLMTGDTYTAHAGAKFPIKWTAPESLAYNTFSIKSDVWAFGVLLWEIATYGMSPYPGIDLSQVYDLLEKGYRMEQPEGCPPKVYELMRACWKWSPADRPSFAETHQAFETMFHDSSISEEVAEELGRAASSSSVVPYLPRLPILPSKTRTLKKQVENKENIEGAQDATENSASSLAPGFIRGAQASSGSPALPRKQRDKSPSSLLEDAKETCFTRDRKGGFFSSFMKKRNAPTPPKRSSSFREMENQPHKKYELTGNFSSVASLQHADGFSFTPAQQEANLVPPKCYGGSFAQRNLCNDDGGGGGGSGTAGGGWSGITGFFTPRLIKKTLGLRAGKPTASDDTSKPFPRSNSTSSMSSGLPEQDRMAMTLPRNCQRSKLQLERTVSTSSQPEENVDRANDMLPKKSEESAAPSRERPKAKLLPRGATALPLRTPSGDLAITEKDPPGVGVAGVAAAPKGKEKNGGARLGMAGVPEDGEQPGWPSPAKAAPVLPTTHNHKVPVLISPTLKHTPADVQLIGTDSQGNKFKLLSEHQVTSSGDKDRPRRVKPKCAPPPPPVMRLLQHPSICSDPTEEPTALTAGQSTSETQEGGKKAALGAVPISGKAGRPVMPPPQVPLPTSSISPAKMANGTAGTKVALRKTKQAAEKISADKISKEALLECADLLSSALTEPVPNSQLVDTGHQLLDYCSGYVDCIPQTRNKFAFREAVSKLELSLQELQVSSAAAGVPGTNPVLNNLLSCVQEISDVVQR
Mitogen-activated protein kinase 11 (Homo sapiens), sequence (Q15759 whole entry): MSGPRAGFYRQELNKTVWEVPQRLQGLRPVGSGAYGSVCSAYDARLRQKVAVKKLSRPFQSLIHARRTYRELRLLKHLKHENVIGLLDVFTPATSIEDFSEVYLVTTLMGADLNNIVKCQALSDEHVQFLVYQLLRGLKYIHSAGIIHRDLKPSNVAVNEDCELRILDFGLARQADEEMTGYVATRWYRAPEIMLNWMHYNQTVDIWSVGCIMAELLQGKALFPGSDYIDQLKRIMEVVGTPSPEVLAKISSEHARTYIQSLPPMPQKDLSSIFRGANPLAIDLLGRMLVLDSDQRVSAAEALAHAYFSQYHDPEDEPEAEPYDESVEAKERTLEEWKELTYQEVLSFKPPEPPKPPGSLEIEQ
Mitogen-activated protein kinase 14 (Homo sapiens), sequence (Q16539 whole entry): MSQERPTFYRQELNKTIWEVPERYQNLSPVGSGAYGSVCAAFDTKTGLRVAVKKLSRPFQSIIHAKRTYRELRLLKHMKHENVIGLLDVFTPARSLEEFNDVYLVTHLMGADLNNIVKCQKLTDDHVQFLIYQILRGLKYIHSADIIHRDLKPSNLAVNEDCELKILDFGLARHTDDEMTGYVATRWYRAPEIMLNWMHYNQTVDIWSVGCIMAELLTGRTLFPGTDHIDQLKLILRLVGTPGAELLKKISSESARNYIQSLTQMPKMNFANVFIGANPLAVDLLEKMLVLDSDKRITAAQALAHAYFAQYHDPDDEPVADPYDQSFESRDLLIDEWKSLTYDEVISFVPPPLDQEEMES
Interleukin-1 receptor-associated kinase 1 (Homo sapiens), sequence (P51617 whole entry, looked up): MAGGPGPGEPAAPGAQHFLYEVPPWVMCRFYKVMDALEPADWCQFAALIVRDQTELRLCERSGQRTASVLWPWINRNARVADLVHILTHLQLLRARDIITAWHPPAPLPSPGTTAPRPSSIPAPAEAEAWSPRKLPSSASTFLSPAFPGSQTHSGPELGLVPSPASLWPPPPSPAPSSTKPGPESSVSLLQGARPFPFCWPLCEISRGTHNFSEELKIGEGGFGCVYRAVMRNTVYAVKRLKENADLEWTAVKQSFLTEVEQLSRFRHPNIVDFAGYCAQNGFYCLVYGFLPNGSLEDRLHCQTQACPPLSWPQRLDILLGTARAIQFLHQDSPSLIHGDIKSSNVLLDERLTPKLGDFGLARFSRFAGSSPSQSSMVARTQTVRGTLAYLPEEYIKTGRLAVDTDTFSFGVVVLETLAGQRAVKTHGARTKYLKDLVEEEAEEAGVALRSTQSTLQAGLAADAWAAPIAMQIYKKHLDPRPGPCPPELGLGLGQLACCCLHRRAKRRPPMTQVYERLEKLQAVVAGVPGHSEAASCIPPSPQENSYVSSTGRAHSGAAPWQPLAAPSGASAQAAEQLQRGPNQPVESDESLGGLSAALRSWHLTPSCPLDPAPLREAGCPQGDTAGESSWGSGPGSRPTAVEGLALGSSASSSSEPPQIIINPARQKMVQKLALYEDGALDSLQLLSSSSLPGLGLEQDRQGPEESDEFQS
Mitogen-activated protein kinase 1 (Homo sapiens), sequence (P28482 whole entry): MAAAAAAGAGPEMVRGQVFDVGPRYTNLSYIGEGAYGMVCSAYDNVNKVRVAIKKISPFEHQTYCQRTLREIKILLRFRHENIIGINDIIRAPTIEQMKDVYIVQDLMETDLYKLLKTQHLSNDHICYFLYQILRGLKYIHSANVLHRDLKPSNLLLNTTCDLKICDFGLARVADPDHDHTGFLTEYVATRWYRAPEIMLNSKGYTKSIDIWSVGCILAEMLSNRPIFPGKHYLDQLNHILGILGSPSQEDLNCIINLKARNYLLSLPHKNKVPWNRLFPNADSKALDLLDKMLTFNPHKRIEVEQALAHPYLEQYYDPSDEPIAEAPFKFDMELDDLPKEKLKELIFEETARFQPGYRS

inhibition [1]: -0.7%
inhibition [2]: 5.7%
inhibition [3]: 1.3%
SMILES: COC(=O)Nc1noc2cc(-c3c(-c4ccccn4)n[nH]c3C)ccc12

inhibition [4]: 3%
inhibition [5]: 2.7%
inhibition [6]: 2.3%
inhibition [7]: 4%
inhibition [8]: 0.7%
inhibition [9]: -1.7%
inhibition [10]: 3.7%
inhibition [11]: 7.7%
inhibition [12]: 6.3%
inhibition [13]: 2.3%
inhibition [14]: 15.3%
SMILES: Cc1[nH]nc(C2CC2)c1-c1ccc2c(NC(=O)C3CC3)noc2c1

inhibition [15]: 12.7%
inhibition [16]: 4.3%
inhibition [17]: -1.7%
inhibition [18]: 62.3%
inhibition [19]: 35%
inhibition [20]: 7%
SMILES: Cc1n[nH]c(C)c1-c1ccc2c(NC(=O)c3ccc(N4CCN(C)CC4)cc3)n[nH]c2c1
